Measured values published in ChEMBL document CHEMBL1139525, “Targeting and inhibition of cell growth by an engineered dendritic nanodevice” (J Med Chem, 2005).

What was measured:
[1] = Dissociation constant against folic acid receptor (FAR); Value ranges from 0.1-1 nM; parameters: species or system Homo sapiens
KB = assay: Concentration required to completely block the uptake of either G5-FI-FA or G5-FI-FA-MTX dendrimer (30 nM) in FAR expressing KB cells; type: functional, cell-based; conditions: Homo sapiens

Nc1nc(=O)c2nc(CNc3ccc(C(=O)N[C@@H](CCC(=O)O)C(=O)O)cc3)cnc2[nH]1 [FOLIC ACID]
Kd [1]: 1 nM | Concentration (KB): 50 µM
